Data as given in US7411083B2, “Substituted acetic acid derivatives” (Wyeth, priority 2003, dated 2008).

The compounds below were run against T1, recombinant human plasminogen activator inhibitor-1 (PAI-1) (Homo sapiens, UniProt P05121) (assay: Screening for PAI-1 inhibition (residual tPA activity, Spectrozyme-tPA chromogenic substrate)). Conditions: test compound at 100 Um; pH 6.6 buffer, 140 nM PAI-1, 70 nM tPA.
T1 construct: purchased Molecular Innovations, Royal Oak, Mich
Type: biochemical
In short: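 PAI-1 at 140 nM, pH 6.6 buffer, preincubated 1 h at room temperature with compound (1-100 μM final, ≤0.2% DMSO), then 70 nM tPA added for 30 min. Residual tPA activity read by Spectrozyme-tPA absorbance at 405 nm at 0 and 60 min. Inhibition taken as residual tPA activity.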

T1 sequence (P05121 24-402): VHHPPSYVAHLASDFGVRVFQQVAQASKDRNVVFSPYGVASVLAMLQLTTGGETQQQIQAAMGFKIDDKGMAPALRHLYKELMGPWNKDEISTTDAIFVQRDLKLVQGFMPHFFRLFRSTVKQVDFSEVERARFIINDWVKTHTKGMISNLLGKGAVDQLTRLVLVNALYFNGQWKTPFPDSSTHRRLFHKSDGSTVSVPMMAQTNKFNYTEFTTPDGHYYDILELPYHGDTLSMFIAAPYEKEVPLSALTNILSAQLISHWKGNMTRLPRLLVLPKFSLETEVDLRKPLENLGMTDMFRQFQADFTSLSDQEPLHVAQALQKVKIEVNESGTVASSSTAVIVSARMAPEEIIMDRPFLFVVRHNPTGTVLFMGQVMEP

Point of comparison: O=C(O)CO/N=C/c1ccc(-c2cccc(OCc3ccc4ccccc4c3)c2)cc1 [Compound 98, [({(1E)-[3′-(2-naphthylmethoxy)-1,1′-biphenyl-4-yl]methylidene}amino)oxy]acetic acid], inhibition at 100 µM 46%. Against it:
- Cc1cccc(COc2ccc(OCc3cccc(C)c3)c(/C=N/OCC(=O)O)c2)c1 [Compound 159, {[((1E)-{2,5-bis[(3-methylbenzyl)oxy]phenyl}methylidene)amino]oxy}acetic acid] — higher, 69%
- O=C(O)CO/N=C/c1ccc(C#CCOc2ccc(Br)cc2)cc1 [Compound 163, {[((1E)-{4-[3-(4-bromophenoxy)prop-1-ynyl]phenyl}methylidene)amino]oxy}acetic acid] — higher, 65%
- CCn1cc(/C=N/OCC(=O)O)c2cc(OCc3cc(C(F)(F)F)cc(C(F)(F)F)c3)ccc21 [Compound 11, ({[(1E)-(5-{[3,5-bis(trifluoromethyl)benzyl]oxy}-1-ethyl-1H-indol-3-yl)methylidene]amino}oxy)acetic acid] — higher, 71%
- O=C(O)CO/N=C/c1ccc(OCc2cccc(C(F)(F)F)c2)cc1OCc1cccc(C(F)(F)F)c1 [Compound 130, ({[(1E)-(2,4-bis{[3-(trifluoromethyl)benzyl]oxy}phenyl)methylidene]amino}oxy)acetic acid] — higher, 91%
- O=C(O)CO/N=C/c1cccc(OCc2cccc(Cl)c2)c1OCc1cccc(Cl)c1 [Compound 136, {[((1E)-{2,3-bis[(3-chlorobenzyl)oxy]phenyl}methylidene)amino]oxy}acetic acid] — higher, 80%
- CCn1cc(/C=N/OCC(=O)O)c2cc(OCc3ccc(C)cc3)ccc21 [Compound 20, {[((1E)-{1-ethyl-5-[(4-methylbenzyl)oxy]-1H-indol-3-yl}methylidene)amino]oxy}acetic acid] — lower, 44%
- O=C(O)CO/N=C/c1ccc(OCc2cccc(Br)c2)cc1OCc1cccc(Br)c1 [Compound 128, {[((1E)-{2,4-bis[(3-bromobenzyl)oxy]phenyl}methylidene)amino]oxy}acetic acid] — higher, 91%
- Cc1cccc(COc2cccc(/C=N/OCC(=O)O)c2OCc2cccc(C)c2)c1 [Compound 138, {[((1E)-{2,3-bis[(3-methylbenzyl)oxy]phenyl}methylidene)amino]oxy}acetic acid] — higher, 88%
- O=C(O)CO/N=C/c1cc(OCc2ccc(F)cc2)ccc1OCc1ccc(F)cc1 [Compound 153, {[((1E)-{2,5-bis[(4-fluorobenzyl)oxy]phenyl}methylidene)amino]oxy}acetic acid] — higher, 96%
- Cc1ccc(COc2cccc(-c3cccc(/C=N/OCC(=O)O)c3)c2)cc1 [Compound 70, {[((1E)-{3′-[(4-methylbenzyl)oxy]-1,1′-biphenyl-3-yl}methylidene)amino]oxy}acetic acid] — higher, 83%
- Cc1ccc(COc2ccc(-c3cccc(/C=N/OCC(=O)O)c3)cc2)cc1 [Compound 85, {[((1E)-{4′-[(4-methylbenzyl)oxy]-1,1′-biphenyl-3-yl}methylidene)amino]oxy}acetic acid] — lower, 34%
- Cc1ccc(COc2ccc(/C=N/OCC(=O)O)cc2OCc2ccc(C)cc2)cc1 [Compound 120, {[((1E)-{3,4-bis[(4-methylbenzyl)oxy]phenyl}methylidene)amino]oxy}acetic acid] — higher, 78%
- O=C(O)CO/N=C/c1ccc(-c2ccc(OCc3ccccc3)cc2)cc1 [Compound 105, [({(1E)-[4′-(benzyloxy)-1,1′-biphenyl-4-yl]methylidene}amino)oxy]acetic acid] — lower, 5%
- Cn1cc(/C=N/OCC(=O)O)c2cc(OCc3ccc(Cl)cc3)ccc21 [Compound 47, {[((1E)-{5-[(4-chlorobenzyl)oxy]-1-methyl-1H-indol-3-yl}methylidene)amino]oxy}acetic acid] — lower, 31%
- CC(C)(C)c1ccc(COc2ccc(/C=N/OCC(=O)O)cc2OCc2ccc(C(C)(C)C)cc2)cc1 [Compound 112, {[((1E)-{3,4-bis[(4-tert-butylbenzyl)oxy]phenyl}methylidene)amino]oxy}acetic acid] — higher, 65%
- CC(C)Cc1ccc(OCC#Cc2ccc(/C=N/OCC(=O)O)cc2)cc1 [Compound 167, {[((1E)-{4-[3-(4-isobutylphenoxy)prop-1-ynyl]phenyl}methylidene)amino]oxy}acetic acid] — higher, 53%
- O=C(O)CO/N=C/c1cc(OCc2ccc(Br)cc2)cc(OCc2ccc(Br)cc2)c1 [Compound 145, {[((1E)-{3,5-bis[(4-bromobenzyl)oxy]phenyl}methylidene)amino]oxy}acetic acid] — higher, 100%
- O=C(O)CO/N=C/c1ccc(-c2ccc(OCc3ccc(Cl)c(Cl)c3)cc2)cc1 [Compound 108, {[((1E)-{4′-[(3,4-dichlorobenzyl)oxy]-1,1′-biphenyl-4-yl}methylidene)amino]oxy}acetic acid] — higher, 58%
- O=C(O)CO/N=C/c1ccc(-c2ccc(OCc3cccc(Cl)c3)cc2)cc1 [Compound 104, {[((1E)-{4′-[(3-chlorobenzyl)oxy]-1,1′-biphenyl-4-yl}methylidene)amino]oxy}acetic acid] — lower, 5%
- C=CCn1cc(/C=N/OCC(=O)O)c2cc(OCc3ccc(Br)cc3)ccc21 [Compound 7, {[((1E)-{1-allyl-5-[(4-bromobenzyl)oxy]-1H-indol-3-yl}methylidene)amino]oxy}acetic acid] — higher, 83%
- O=C(O)CO/N=C/c1ccc(-c2cccc(OCc3cccc(Br)c3)c2)cc1 [Compound 91, {[((1E)-{3′-[(3-bromobenzyl)oxy]-1,1′-biphenyl-4-yl}methylidene)amino]oxy}acetic acid] — higher, 77%
- O=C(O)CO/N=C/c1cc(OCc2ccc(F)cc2)cc(OCc2ccc(F)cc2)c1 [Compound 143, {[((1E)-{3,5-bis[(4-fluorobenzyl)oxy]phenyl}methylidene)amino]oxy}acetic acid] — higher, 95%
- O=C(O)CO/N=C/c1cn(Cc2ccccc2)c2ccc(OCc3ccc4ccccc4c3)cc12 [Compound 56, [({(1E)-[1-benzyl-5-(2-naphthylmethoxy)-1H-indol-3-yl]methylidene}amino)oxy]acetic acid] — higher, 62%
- Cc1ccc(COc2ccc(/C=N/OCC(=O)O)c(OCc3ccc(C)cc3)c2)cc1 [Compound 122, {[((1E)-{2,4-bis[(4-methylbenzyl)oxy]phenyl}methylidene)amino]oxy}acetic acid] — higher, 87%
- O=C(O)CO/N=C/c1ccc(OCc2ccc(F)cc2)c(OCc2ccc(F)cc2)c1 [Compound 113, {[((1E)-{3,4-bis[(4-fluorobenzyl)oxy]phenyl}methylidene)amino]oxy}acetic acid] — higher, 91%
- C#CCn1cc(/C=N/OCC(=O)O)c2cc(OCc3ccc(Cl)c(Cl)c3)ccc21 [Compound 51, [({(1E)-[5-[(3,4-dichlorobenzyl)oxy]-1-(2-propynyl)-1H-indol-3-yl]methylidene}amino)oxy]acetic acid] — higher, 86%
- O=C(O)CO/N=C/c1ccc(OCc2cccc(C(F)(F)F)c2)c(OCc2cccc(C(F)(F)F)c2)c1 [Compound 119, ({[(1E)-(3,4-bis{[3-(trifluoromethyl)benzyl]oxy}phenyl)methylidene]amino}oxy)acetic acid] — higher, 93%
- C=CCn1cc(/C=N/OCC(=O)O)c2cc(OCc3cccc(C)c3)ccc21 [Compound 25, {[((1E)-{1-allyl-5-[(3-methylbenzyl)oxy]-1H-indol-3-yl}methylidene)amino]oxy}acetic acid] — higher, 68%
- C=CCn1cc(/C=N/OCC(=O)O)c2cc(OCc3ccccc3Cl)ccc21 [Compound 49, {[((1E)-{1-allyl-5-[(2-chlorobenzyl)oxy]-1H-indol-3-yl}methylidene)amino]oxy}acetic acid] — higher, 93%
- O=C(O)CO/N=C/c1ccc(C#CCOc2cc(C(F)(F)F)cc(C(F)(F)F)c2)cc1 [Compound 164, ({[(1E)-(4-{3-[3,5-bis(trifluoromethyl)phenoxy]prop-1-ynyl}phenyl)methylidene]amino}oxy) acetic acid] — higher, 73%
- O=C(O)CO/N=C/c1cccc(-c2ccc(OCc3ccc4ccccc4c3)cc2)c1 [Compound 84, [({(1E)-[4′-(2-naphthylmethoxy)-1,1′-biphenyl-3-yl]methylidene}amino)oxy]acetic acid] — lower, 30%
- O=C(O)CO/N=C/c1ccc(-c2ccc(OCc3cccc(C(F)(F)F)c3)cc2)cc1 [Compound 106, ({[(1E)-(4′-{[3-(trifluoromethyl)benzyl]oxy}-1,1′-biphenyl-4-yl)methylidene]amino}oxy)acetic acid] — lower, 8%
- O=C(O)CO/N=C/c1ccc(-c2cccc(OCc3ccccc3Cl)c2)cc1 [Compound 96, {[((1E)-{3′-[(2-chlorobenzyl)oxy]-1,1′-biphenyl-4-yl}methylidene)amino]oxy}acetic acid] — higher, 61%
- O=C(O)CO/N=C/c1ccc(C#CCOc2cc(Cl)cc(Cl)c2)cc1 [Compound 165, {[((1E)-{4-[3-(3,5-dichlorophenoxy)prop-1-ynyl]phenyl}methylidene)amino]oxy}acetic acid] — higher, 68%
- O=C(O)CO/N=C/c1ccc(OCc2ccc(C(F)(F)F)cc2)cc1OCc1ccc(C(F)(F)F)cc1 [Compound 124, ({[(1E)-(2,4-bis{[4-(trifluoromethyl)benzyl]oxy}phenyl)methylidene]amino}oxy)acetic acid] — higher, 95%
- C=CCn1cc(/C=N/OCC(=O)O)c2cc(OCc3ccc(Cl)c(Cl)c3)ccc21 [Compound 52, {[((1E)-{1-allyl-5-[(3,4-dichlorobenzyl)oxy]-1H-indol-3-yl}methylidene)amino]oxy}acetic acid] — higher, 72%
- CC(C)(C)c1ccc(COc2ccc(/C=N/OCC(=O)O)c(OCc3ccc(C(C)(C)C)cc3)c2)cc1 [Compound 126, {[((1E)-{2,4-bis[(4-tert-butylbenzyl)oxy]phenyl}methylidene)amino]oxy}acetic acid] — higher, 77%
